Measured values as given in patent US20170202939A1, “PERSONALIZED CANCER VACCINES AND METHODS THEREFOR” (Washington University, priority 2014, published 2017).
Each block holds one molecule with its values, some of them ahead of it. No end group written: not given here.

Legend:
HLA-A*02:01 [1] = target: T1, HLA-A*02:01 (Homo sapiens, UniProt P04439, D140Y/D185E/D98H/E176V/E277Q/G131W/G231S/I119V/I121R/I166T/I218V/L300P/L318F/N151K/N90K/P208A/P217A/Q86G/Q94H/R138H/R169H/T345S); test: fluorescence polarization-based competitive peptide binding assay; conditions: fluorescence polarization-based competitive peptide-binding assay; high affinity log(IC50; nM) <3.7; read-out: Experimental Affinity log(IC50) (converted)
T1 construct: purchased Pure Protein, L.L.C

[2] = tested on: neoantigen-specific CD8+ T cells; test: immune monitoring of vaccinated patients, HLA/peptide dextramer (tetramer) assay on cultured PBMC; format: in vivo, human; conditions: for Immunogenicity: AAS-directed CD8+ T cell response in vaccinated patient; for Spontaneous Immunity: pre-vaccine (naturally-occurring) CD8+ T cell response, immune monitoring assay
Method: Immunologic monitoring (Examples 1-10). Immunologic analysis to evaluate the kinetics and magnitude of T cell response to gp100 peptides was performed using PBMCs collected weekly (prior to vaccination and until week 21. Fresh PBMCs obtained by Ficoll-Hypaque gradient centrifugation were adjusted to 2×10^6 cells/ml in Stemline media (Sigma-Aldrich) containing 5% human AB-serum, and dispersed at 1 ml/well in 24-well plates. Cultures were set up for the gp100 peptides and the CMV pp65 peptide (positive peptide control). Cultures were pulsed with 40 μg/ml peptide and 50 U/ml IL-2 fed starting at 48 hours and every other day thereafter. On day 12 (peak of response; the inventors' unpublished observation), cultures were harvested, counted, and stained for flow cytometry analysis. To assess the antigen-specific T cell frequency, cells were stained with HLAA*0201/peptide tetramers (Beckman Coulter) for 30 minutes at room temperature, followed by addition of FITC-conjugated CD4, CD14, CD19, and CD56 and allophycocyanin-conjugated CD8 (Invitrogen) for 15 minutes at 4° C. Cells were washed and resuspended in FACS buffer, and 7AAD was added 5 minutes before analysis. Control CMV pp65-specific CD8+ T cells were detected in all CMV-seropositive patients before and after immunization. A negative HLA-A*0201/HIV gag peptide tetramer control was included. 25,000 events in the CD8+ gate were collected using a hierarchical gating strategy that included FSC/SSC and excluded 7AAD+ (dead) cells and CD4+CD14+CD19+CD56+ cells. Data were acquired and analyzed using Flow-Jo software.
To examine the kinetics and magnitude of T cell immunity to AAS peptides upon vaccination, peripheral blood mononuclear cells (PBMC) were collected prior to vaccination and weekly thereafter. The CD8+ T cell response to each peptide was analyzed using a HLA-A*02:01/AAS-peptide dextramer assay after a single round of in vitro stimulation. FIG. 30A illustrates kinetics of immune responses to neoantigens. Time is recorded in weeks (0 indicates pre-vaccination). Culture conditions and staining details are described infra. Antigen-specific numbers were calculated based on dextramer percentage and total live cell yields. Immunologic analysis to evaluate the kinetic and magnitude of T cell response to AAS-encoding and gp100-derived peptides was performed using PBMC collected weekly, starting before DC vaccination (Pre-vaccine in the figures) as described (Carreno, B. M., et al., J. Clin. Invest., 123, 3383-3394, 2013). Briefly, fresh PBMC obtained by Ficoll-Paque PLUS gradient centrifugation were cultured with 40 ug/mL peptide and IL-2 (50 U/mL). On day 10 (peak of response, unpublished data, labeled “Post-Vaccine” in the figures), neoantigen specific T cell frequencies were determined by staining with HLA-A*02:01/peptide dextramers (Immudex), followed by addition of FITC-CD4, -CD14, -CD19 (Invitrogen) and ALEXA® 488-CD56 (BD Pharmigen), APC-CD8 (Invitrogen). Cells were washed, resuspended in FACS buffer containing 7AAD. Twenty five thousand events in the CD8+ gate were collected using a hierarchical gating strategy that included FSC/SSC and excluded 7AAD-positive (dead cells) and CD4/14/19/56-positive cells. PBMC/CD8+ T cells derived from an unrelated HLA-A*02:01 patient were used as negative controls for assessing specificity of HLA-A*02:01/AAS-peptide dextramers (data not shown). Data were acquired and analyzed using Flow-Jo software. […] FIG. 30B illustrates the frequency of neoantigen specific T cells in CD8+ populations isolated directly from PBMC samples and after ex-vivo expansion using autologous DC and artificial antigen presenting cells. For dominant neoantigens TMEM48 F169L, SEC24A P469L and EXOC8 Q656, results are shown for samples obtained before vaccination (Pre-vaccine) and after 3 vaccine doses (Post-vaccine). For remaining neoantigens, results obtained with post-vaccine PBMC samples are shown. […]

HLA-A*02:01 [3] = target: T2, HLA-A*02:01 (human); test: fluorescence polarization-based competitive peptide-binding assay
T2 construct: The form of the HLA molecule in the fluorescence polarization assay is not described; also called HLA-A2

Molecule: AVIDAYTEI
IC50 (HLA-A*02:01 [1]): 25700 nM
Immunogenicity [2]: No
Spontaneous Immunity [2]: No

Molecule: CLFPQTLAA
IC50 (HLA-A*02:01 [1]): 3390 nM
Immunogenicity [2]: No
Spontaneous Immunity [2]: No

Molecule: FVSALCMFL
Immunogenicity [2]: No
Spontaneous Immunity [2]: No

Molecule: G280-9V: HLA-A*0201-restricted gp100 melanoma antigen-derived peptide, positive control for vaccination [reference compound]
T cell response upon vaccination ([2]; post-vaccine PBMC, dextramer assay): enhanced in patients MEL21 and MEL218 and revealed in patient MEL38
pre-existing (naturally occurring) T cell immunity ([2]; pre-vaccine PBMC samples after in vitro stimulation): Two (MEL21 and MEL218) of the three patients had pre-existing immunity

Molecule: HLYASLSRV
IC50 (HLA-A*02:01 [1]): 1910 nM

Molecule: IIGAGPAEV
IC50 (HLA-A*02:01 [1]): 6610 nM

Molecule: IMAHCILDL
IC50 (HLA-A*02:01 [1]): 10500 nM
Immunogenicity [2]: No
Spontaneous Immunity [2]: No

Molecule: KLANPLPYT
IC50 (HLA-A*02:01 [1]): 5370 nM
Immunogenicity [2]: No
Spontaneous Immunity [2]: No

Molecule: LLSIIFFPA
IC50 (HLA-A*02:01 [1]): 7940 nM
Immunogenicity [2]: No
Spontaneous Immunity [2]: No

Molecule: LLSIVPCTV
IC50 (HLA-A*02:01 [1]): 1230 nM
Immunogenicity [2]: No
Spontaneous Immunity [2]: No

B1: LARP7 N515D AAS peptide AVIDAYTEI (MEL218) (peptide)
peptide: AVIDAYTEI
notes: Synthetic nonamer carrying a tumor amino acid substitution
log(IC50, nM) (HLA-A*02:01 [3]): 4.41 log(IC50, nM)

B2: EXOC8 Q656P AAS peptide IILVAVPHV (MEL218) (peptide)
peptide: IILVAVPHV
log(IC50, nM) (HLA-A*02:01 [3]): 3.06 log(IC50, nM)

B8: GPX8 L27P AAS peptide LLSIVPCTV (MEL21) (peptide)
peptide: LLSIVPCTV
notes: as for B1
log(IC50, nM) (HLA-A*02:01 [3]): 3.09 log(IC50, nM)

B11: ARFGEF1 F1637L AAS peptide QTIDNIVFL (MEL21) (peptide)
peptide: QTIDNIVFL
notes: as for B1
log(IC50, nM) (HLA-A*02:01 [3]): 3.19 log(IC50, nM)

B12: ARFGEF1 R782C AAS peptide FVSALCMFL (MEL38) (peptide)
peptide: FVSALCMFL
log(IC50, nM) (HLA-A*02:01 [3]): 3.18 log(IC50, nM)

B15: AKAP13 Q285K AAS peptide KLMNIQQKL (MEL38) (peptide)
peptide: KLMNIQQKL
notes: as for B1
log(IC50, nM) (HLA-A*02:01 [3]): 3.07 log(IC50, nM)

B16: HSD17B7 H108Y AAS peptide YISKCWDYA (MEL38) (peptide)
peptide: YISKCWDYA
notes: as for B1
log(IC50, nM) (HLA-A*02:01 [3]): 4.28 log(IC50, nM)

B19: KDM1B G394E AAS peptide IIGAGPAEV, anchor-modified at P9 (MEL21) (peptide)
peptide: IIGAGPAEV
log(IC50, nM) (HLA-A*02:01 [3]): 3.82 log(IC50, nM)

Continued, in another order:

IC50 (HLA-A*02:01 [1]): 2290 nM
Molecule: QLDKCSAFV
Immunogenicity [2]: No
Spontaneous Immunity [2]: No

IC50 (HLA-A*02:01 [1]): 1550 nM
Molecule: QTIDNIVFL
Immunogenicity [2]: No
Spontaneous Immunity [2]: No

IC50 (HLA-A*02:01 [1]): 1120 nM
Molecule: VLLRALPVL
Immunogenicity [2]: No
Spontaneous Immunity [2]: No

IC50 (HLA-A*02:01 [1]): 19100 nM
Molecule: YISKCWDYA
Immunogenicity [2]: No
Spontaneous Immunity [2]: No

log(IC50, nM) (HLA-A*02:01 [3]): 3.05 log(IC50, nM)
B3: MRPS17 P167L AAS peptide VLLRALPVL (MEL218) (peptide)
peptide: VLLRALPVL
notes: as for B1

log(IC50, nM) (HLA-A*02:01 [3]): 3.9 log(IC50, nM)
B4: PHKA2 S264F AAS peptide LLSIIFFPA (MEL21) (peptide)
peptide: LLSIIFFPA
notes: as for B1

log(IC50, nM) (HLA-A*02:01 [3]): 3.36 log(IC50, nM)
B5: UTRN Q1058K AAS peptide QLDKCSAFV (MEL38) (peptide)
peptide: QLDKCSAFV
notes: as for B1

log(IC50, nM) (HLA-A*02:01 [3]): 4.02 log(IC50, nM)
B6: SRP9 I64M AAS peptide IMAHCILDL (MEL218) (peptide)
peptide: IMAHCILDL
notes: as for B1

log(IC50, nM) (HLA-A*02:01 [3]): 2.35 log(IC50, nM)
B7: PABPC1 R520Q AAS peptide MLGEQLFPL (MEL218) (peptide)
peptide: MLGEQLFPL
notes: as for B1

log(IC50, nM) (HLA-A*02:01 [3]): 2.68 log(IC50, nM)
B9: SEC24A P469L AAS peptide FLYNLLTRV (MEL38) (peptide)
peptide: FLYNLLTRV
notes: as for B1

log(IC50, nM) (HLA-A*02:01 [3]): 3.53 log(IC50, nM)
B10: PRKCDBP S153F AAS peptide CLFPQTLAA (MEL38) (peptide)
peptide: CLFPQTLAA

log(IC50, nM) (HLA-A*02:01 [3]): 3.1 log(IC50, nM)
B13: OR8B3 T190I AAS peptide QLSCISTYV (MEL38) (peptide)
peptide: QLSCISTYV
notes: as for B1

log(IC50, nM) (HLA-A*02:01 [3]): 3.09 log(IC50, nM)
B14: TMEM48 F169L AAS peptide CLNEYHLFL (MEL21) (peptide)
peptide: CLNEYHLFL
notes: as for B1

log(IC50, nM) (HLA-A*02:01 [3]): 3.73 log(IC50, nM)
B17: SMOX K499N AAS peptide KLANPLPYT (MEL218) (peptide)
peptide: KLANPLPYT
notes: as for B1

log(IC50, nM) (HLA-A*02:01 [3]): 3.28 log(IC50, nM)
B18: MRPS5 P59L AAS peptide HLYASLSRV, anchor-modified at P9 (MEL218) (peptide)
peptide: HLYASLSRV

log(IC50, nM) (HLA-A*02:01 [3]): 2.35 log(IC50, nM)
B20: TKT R438W AAS peptide AMFWSVPTV, anchor-modified at P9 (MEL21) (peptide)
peptide: AMFWSVPTV
